Measurements taken from the supplement of paper PMC10307832.

Legend:
Test in all cases: relative viability (nuclei count vs DMSO), 5 days (fraction); higher = more cells survive
kb NB 142-70 + Foretinib = compound: C1CSC2=C(C(=O)N1)SC3=C2C=C(C=C3)O [kb NB 142-70] + COc1cc2c(Oc3ccc(NC(=O)C4(C(=O)Nc5ccc(F)cc5)CC4)cc3F)ccnc2cc1OCCCN1CCOCC1 [Foretinib] (partner 0.25 µM)
Method in brief: (§1)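 Medians of duplicate plates are given as relative viability. That measure is the nuclei count in treated wells divided by the count in vehicle wells. Counts were taken on 4× images of lung cancer cell lines in 1536-well plates, 5 days after pin-tool dosing the day after seeding with one drug alone or a fixed anchor-drug dose plus five library-drug doses (not always all listed) in √10 steps.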

[1] = compound: NCC(=O)Nc1ccc(-n2nc(C(F)(F)F)cc2-c2ccc3c(ccc4ccccc43)c2)cc1 + CC(=O)c1c(C)c2cnc(Nc3ccc(N4CCNCC4)cn3)nc2n(C2CCCC2)c1=O [Palbociclib] (partner 0.5 µM)
Method in brief: as §1

[2] = compound: NCC(=O)Nc1ccc(-n2nc(C(F)(F)F)cc2-c2ccc3c(ccc4ccccc43)c2)cc1 + CC1(C)CCC(c2ccc(Cl)cc2)=C(CN2CCN(c3ccc(C(=O)NS(=O)(=O)c4ccc(N[C@H](CCN5CCOCC5)CSc5ccccc5)c(S(=O)(=O)C(F)(F)F)c4)cc3)CC2)C1 [Navitoclax] (partner 0.5 µM)
Method in brief: as §1

[3] = compound: NCC(=O)Nc1ccc(-n2nc(C(F)(F)F)cc2-c2ccc3c(ccc4ccccc43)c2)cc1 + Nc1ncn([C@H]2C[C@H](O)[C@@H](CO)O2)c(=O)n1 [Decitabine] (partner 2 µM)
Method in brief: as §1

| Cell Line | relative viability (kb NB 142-70 + Foretinib; first compound 0.1 µM) | relative viability (kb NB 142-70 + Foretinib; first compound 1 µM) | relative viability (kb NB 142-70 + Foretinib; first compound 3.162 µM) | relative viability ([1]; first compound 0.02 µM) | relative viability ([1]; first compound 0.06325 µM) | relative viability ([1]; first compound 0.2 µM) | relative viability ([1]; first compound 0.6325 µM) | relative viability ([1]; first compound 2 µM) | relative viability ([2]; first compound 0.02 µM) | relative viability ([2]; first compound 0.06325 µM) | relative viability ([2]; first compound 0.2 µM) | relative viability ([2]; first compound 0.6325 µM) | relative viability ([2]; first compound 2 µM) | relative viability ([3]; first compound 0.02 µM) | relative viability ([3]; first compound 0.06325 µM) | relative viability ([3]; first compound 0.2 µM) | relative viability ([3]; first compound 0.6325 µM) | relative viability ([3]; first compound 2 µM) |
| --- | --- | --- | --- | --- | --- | --- | --- | --- | --- | --- | --- | --- | --- | --- | --- | --- | --- | --- |
| NCI-H2009 | 1.2 | 1.22 | 0.872 | 0.236 | 0.147 | 0.265 | 0.186 | 0.272 | 1.12 | 1.15 | 1.27 | 1.11 | 1.13 | 0.337 | 0.457 | 0.409 | 0.349 | 0.408 |
| NCI-H2023 | 0.859 | 0.89 | 0.663 | 0.461 | 0.414 | 0.391 | 0.345 | 0.297 | 1.05 | 1.12 | 1.01 | 1 | 1.01 | 0.229 | 0.211 | 0.23 | 0.209 | 0.219 |
| NCI-H2085 | 0.964 | 1.06 | 0.513 | 0.533 | 0.477 | 0.474 | 0.469 | 0.473 | 1.06 | 1.16 | 1.28 | 1.17 | 1.08 | 0.577 | 0.519 | 0.592 | 0.556 | 0.534 |
| NCI-H2087 | 1.25 | 1.32 | 0.968 | 0.256 | 0.278 | 0.262 | 0.249 | 0.24 | 0.849 | 1.11 | 0.939 | 0.969 | 1.03 | 0.249 | 0.245 | 0.246 | 0.282 | 0.251 |
| NCI-H2126 | 1.18 | 0.869 | 1.14 | 0.369 | 0.334 | 0.369 | 0.385 | 0.327 | 0.866 | 0.865 | 0.851 | 0.876 | 0.852 | 0.568 | 0.568 | 0.583 | 0.596 | 0.572 |
| NCI-H2170 | 0.996 | 1.07 | 0.953 | 0.374 | 0.41 | 0.391 | 0.38 | 0.355 | 0.56 | 0.598 | 0.578 | 0.561 | 0.6 | 0.496 | 0.454 | 0.518 | 0.446 | 0.45 |
| NCI-H2347 | 0.744 | 1.21 | 0.72 | 0.426 | 0.384 | 0.448 | 0.473 | 0.419 | 0.771 | 0.878 | 1 | 0.906 | 0.833 | 0.661 | 0.599 | 0.74 | 0.615 | 0.599 |
| NCI-H2405 | 1.05 | 1.05 | 0.776 | 0.501 | 0.519 | 0.556 | 0.515 | 0.517 | 0.848 | 1 | 0.941 | 0.913 | 0.969 | 0.686 | 0.759 | 0.837 | 0.723 | 0.754 |
